Series [1] has as its system human liver cancer cells Bel-7402. The experiment in a line: Efficacy study in nude mouse with xenograft tumor, Bel-7402. Format: in vivo. Conditions: BALB/cA-nude mice, subcutaneous xenograft, 50 mg/kg intragastric once daily for 21 days, dosed as hydrochloride; for inhibition in vivo at 50 mg/kg: Mus musculus, Bel-7402, sc, 504 h, read-out: % tumor inhibition (D21) Bel-7402. On the procedure:
(§1) BALB/cA-nude mice aged 6 to 7 weeks were purchased from Shanghai Slac Laboratory Animal Co., Ltd. The nude mice were subcutaneously grafted with human liver cancer cells Bel-7402, colon cancer cells HT-29, gastric cancer cells SGC-7901 or non-small cell lung cancer cells A549. After the tumor grew to 100 to 250 mm^3, the animals were randomized (d0). The tumor volumes and body weights were measured twice or thrice a week, and the data were recorded. Tumor volume (V) was calculated as follows:
(§2) [formula] • wherein a and b represent length and width, respectively; T and C are the tumor volumes at the end of study; T0 and C0 are the tumor volumes at the start of study.
(§3) All samples were diluted to the desired concentration with 50% PEG400 in distilled water. The regimen was once daily for 21 days at 50 mg/kg mouse body weight through intragastric administration, and 50 mg/kg for the control. The compounds obtained in Examples 1, 3, 4, 5, 6, 7, 8, 9, 10, 11, 12, 13 and 14 and the control were prepared into corresponding hydrochloride as the dosing compounds according to the method disclosed in Example 2 to investigate their efficacy on human liver cancer cell Bel-7402, colon cancer cell HT-29, gastric cancer cell SGC-7901 or non-small cell lung cancer cell A549 xenograft tumors in nude mice and to compare the compounds with the control (prepared as in Example 16).

In series [2] the test system is non-small cell lung cancer cells A549. The experiment in a line: Efficacy study in nude mouse with xenograft tumor, A549. The series is classed as in vivo, human. The conditions noted are these: BALB/cA-nude mice, subcutaneous xenograft, 50 mg/kg intragastric once daily for 21 days, dosed as hydrochloride; for inhibition in vivo at 50 mg/kg: Mus musculus, A549, sc, 504 h, read-out: % tumor inhibition (D21) A549. Here is the method:
as §1, §2, §3

Series [3] deals with gastric cancer cells SGC-7901. Description: Efficacy study in nude mouse with xenograft tumor, SGC-7901. The conditions noted are these: BALB/cA-nude mice, subcutaneous xenograft, 50 mg/kg intragastric once daily for 21 days, dosed as hydrochloride; for inhibition in vivo at 50 mg/kg: Mus musculus, SGC-7901, sc, 504 h, read-out: % tumor inhibition (D21) SGC-7901. Format: in vivo, human. Here is the method:
as §1, §2, §3
A general note: Xenograft models place foreign cells or tissue in a host animal.

The next series concerns colon cancer cells HT-29. The experiment in a line: Efficacy study in nude mouse with xenograft tumor, HT-29. Format: in vivo, human. The conditions noted are these: BALB/cA-nude mice, subcutaneous xenograft, 50 mg/kg intragastric once daily for 21 days, dosed as hydrochloride; for inhibition in vivo at 50 mg/kg: Mus musculus, HT-29, sc, 504 h, read-out: % tumor inhibition (D21) HT-29. Here is the method:
as §1, §2, §3

Series [4] can be described thus: Acute toxicity study in animals (oral LD50). The conditions noted are these: mouse, in vivo, male ICR mice, intragastric administration, observed 14 days, hydrochloride salts. An excerpt: Male ICR mice weighed 23±2 g, clean grade, were selected. The route of administration was intragastric (ig) administration, which is consistent with the intended oral route for clinical use.
Mice were randomly divided into 8 groups by weight: the blank control group, Example 1 group, Example 5 group, Example 11 group, Example 12 group, Example 13 group, Example 14 group and control group. Among these, the control group received amino-combretastatin serinamide hydrochloride as the control (hereinafter referred to as control).
Preparation of the compounds used in the example groups: The compounds obtained in Example 1, Example 3. Example 4. Example 5. Example 6. Example 7. Example 8. Example 9. Example 10. Example 11. Example 12, Example 13 and Example 14 were prepared into hydrochloride salts according to the method disclosed in Example 2.
Pre-treatment: […] were deprived of food but not water for 12 h before the study. and randomized into groups of 10 by body weight. The treatment groups were intragastrically administered once at 0.25 mL/10 g body weight, and the water control group received an equivalent amount of distilled water through intragastric administration. The LD100 value (the amount for 100% death), LD0 (the amount for 0 death) and the corresponding range r value between the dose groups were calculated, and LD50 was determined.
Study procedures: 160 mice were randomized into 8 groups of 20 mice by body weight. After deprivation of food but not water for 12 h before the study, each group was intragastrically given the compound once at 0.3 mL/10 g body weight. Since no death was observed after 12 h, the second dose was given. The control group received equivalent volumes of water. The daily dose of each group was calculated; the control group received equal volumes of water and was subjected to an acute toxicity study for observation and the body weight of the mice was recorded daily for 14 days.

The LD50 is the dose expected to kill half of the subjects tested.

Counter-ions that a name gives are not always drawn.

For the compound `CCCN(CCC)CCC(=O)Nc1cc(/C=C\c2cc(OC)c(OC)c(OC)c2)ccc1OCC` [Example 1], the inhibition in vivo at 50 mg/kg in series [1] is 92%; in series [2], 69%; in series [3], 82%; with colon cancer cells HT-29 it was 93%.
Turning to `CCCN(CCC)CCC(=O)Nc1cc(/C=C\c2cc(OC)c(OC)c(OC)c2)ccc1OC` [Example 3, (Z)-1-(3,4,5-trimethoxyphenyl)-2-((3-(bis(2-n-propyl)amino)propionamide)-4-methoxyphenyl)ethylene], the inhibition in vivo at 50 mg/kg in series [1] is 89%; in series [2], 65%; in series [3], 78%; in the series with colon cancer cells HT-29, 88%.
In the same order, the values of `CCOc1ccc(/C=C\c2cc(OC)c(OC)c(OC)c2)cc1NC(=O)CCN(CC)CC` [Example 4, (Z)-1-(3,4,5-trimethoxyphenyl)-2-((3-(bis(2-ethyl)amino)propionamide)-4-ethoxyphenyl)ethylene] are 90%, 67%, 76% and 91%.
Taken in the same sequence, the figures for `CCCCN(CCCC)CCC(=O)Nc1cc(/C=C\c2cc(OC)c(OC)c(OC)c2)ccc1OCC` [Example 5, (Z)-1-(3,4,5-trimethoxyphenyl)-2-((3-(bis(2-n-butyl)amino)propionamide)-4-ethoxyphenyl)ethylene] were 88%, 63%, 80% and 82%.
Taken in the same sequence, the figures for `CCCCN(CCCC)CCC(=O)Nc1cc(/C=C\c2cc(OC)c(OC)c(OC)c2)ccc1OC` [Example 6, (Z)-1-(3,4,5-trimethoxyphenyl)-2-((3-(bis(2-n-butyl)amino)propionamide)-4-methoxyphenyl)ethylene] were 89%, 62%, 81% and 90%.
Regarding `CCCN(CCC)CCC(=O)Nc1cc(/C=C\c2cc(OC)c(OC)c(OC)c2)ccc1OCC(F)(F)F` [Example 7, (Z)-1-(3,4,5-trimethoxyphenyl)-2-((3-(bis(2-n-propyl)amino)propionamide)-4-trifluoroethoxyphenyl) ethylene], the inhibition in vivo at 50 mg/kg in series [1] is 81%; in series [2] it was 66%; in series [3], 65%; in the series on colon cancer cells HT-29 it was 79%.
Regarding `CCCN(CCC)CCC(=O)Nc1cc(/C=C\c2cc(OC)c(OC)c(OC)c2)ccc1OC(F)F` [Example 8, (Z)-1-(3,4,5-trimethoxyphenyl)-2-((3-(bis(2-n-propyl)amino)propionamide)-4-difluoromethoxyphenyl)ethylene], the inhibition in vivo at 50 mg/kg in series [1] is 90%; in series [2] it was 67%; in series [3], 71%; in the series with colon cancer cells HT-29, 88%.
Regarding `CCCCN(CCCC)CCC(=O)Nc1cc(/C=C\c2cc(OC)c(OC)c(OC)c2)ccc1OCC(F)(F)F` [Example 9, (Z)-1-(3,4,5-trimethoxyphenyl)-2-((3-(bis(2-n-butyl)amino)propionamide)-4-trifluoroethoxyphenyl)ethylene], the inhibition in vivo at 50 mg/kg in series [1] amounted to 79%; in series [2] it was 61%; in series [3] it was 80%; in the series on colon cancer cells HT-29 it was 85%.
As for `CCC(C)N(CCC(=O)Nc1cc(/C=C\c2cc(OC)c(OC)c(OC)c2)ccc1OC(F)F)C(C)CC` (stereo not drawn) [Example 10, (Z)-1-(3,4,5-trimethoxyphenyl)-2-((3-(bis(2-n-butyl)amino)propionamide)-4-difluoromethoxyphenyl)ethylene], in series [1], the “% tumor inhibition (D21) Bel-7402” value came to 86%. In series [2], the “% tumor inhibition (D21) A549” value stood at 60%. Further, in series [3], the “% tumor inhibition (D21) SGC-7901” value came out at 73%. Further, the “% tumor inhibition (D21) HT-29” value in the series on colon cancer cells HT-29 was determined as 81%.
Consider `CCOc1ccc(/C=C\c2cc(OC)c(OC)c(OC)c2)cc1NC(=O)CCN(CCO)CCO` [Example 11, (Z)-1-(3,4,5-trimethoxyphenyl)-2-((3-(bis(2-hydroxyethyl)amino)propionamide)-4-ethoxyphenyl)ethylene], for which the inhibition in vivo at 50 mg/kg in series [1] is 88%; in series [2], 63%; in series [3], 65%; in the series on colon cancer cells HT-29 it was 89%.
In the same order, the values of `COc1ccc(/C=C\c2cc(OC)c(OC)c(OC)c2)cc1NC(=O)CCN(CCO)CCO` [Example 12, (Z)-1-(3,4,5-trimethoxyphenyl)-2-((3-(bis(2-hydroxyethyl)amino)propionamide)-4-methoxyphenyl)ethylene] are 79%, 58%, 77% and 79%.
As to `CCOc1ccc(/C=C\c2cc(OC)c(OC)c(OC)c2)cc1NC(=O)CCNCC(F)F` [Example 13, (Z)-1-(3,4,5-trimethoxyphenyl)-2-((3-(2,2-difluoroethylamino)propionamide)-4-ethoxyphenyl)ethylene], the inhibition in vivo at 50 mg/kg in series [1] turned out to be 82%; in series [2] it was 63%; in series [3], 72%; with colon cancer cells HT-29, 77%.
Taken in the same sequence, the figures for `CCOc1ccc(/C=C\c2cc(OC)c(OC)c(OC)c2)cc1NC(=O)CCNCC(OC)OC` [Example 14, (Z)-1-(3,4,5-trimethoxyphenyl)-2-((3-(2,2-dimethoxyethylamino)propionamide)-4-ethoxyphenyl)ethylene] were 82%, 66%, 80% and 71%.
Regarding `CCCN(CCC)CCC(=O)Nc1cc(/C=C\c2cc(OC)c(OC)c(OC)c2)ccc1OCC` [Hydrochloride of Example 1, (Z)-1-(3,4,5-trimethoxyphenyl)-2-((3-(bis(2-n-propyl)amino)propionamide)-4-ethoxyphenyl)ethylene hydrochloride], in series [4], the LD50 at 14 days is 1200 mg/kg.
Same read-out and setting: in the case of `CCCN(CCC)CCC(=O)Nc1cc(/C=C\c2cc(OC)c(OC)c(OC)c2)ccc1OC` [Hydrochloride of Example 3] it was 1000 mg/kg.
Consider `CCOc1ccc(/C=C\c2cc(OC)c(OC)c(OC)c2)cc1NC(=O)CCN(CC)CC` [Hydrochloride of Example 4], for which, in series [4], the LD50 at 14 days is 1100 mg/kg.
Same read-out and setting: with `CCCCN(CCCC)CCC(=O)Nc1cc(/C=C\c2cc(OC)c(OC)c(OC)c2)ccc1OCC` [Hydrochloride of Example 5] the figure was 1200 mg/kg.
Consider `CCCCN(CCCC)CCC(=O)Nc1cc(/C=C\c2cc(OC)c(OC)c(OC)c2)ccc1OC` [Hydrochloride of Example 6], for which, in series [4], the median lethal dose (LD50) came to 900 mg/kg.
Turning to `CCCN(CCC)CCC(=O)Nc1cc(/C=C\c2cc(OC)c(OC)c(OC)c2)ccc1OCC(F)(F)F` [Hydrochloride of Example 7], the LD50 at 14 days in series [4] was 1200 mg/kg.
Same read-out and setting: with `CCCN(CCC)CCC(=O)Nc1cc(/C=C\c2cc(OC)c(OC)c(OC)c2)ccc1OC(F)F` [Hydrochloride of Example 8] the figure was 1100 mg/kg; with `CCCCN(CCCC)CCC(=O)Nc1cc(/C=C\c2cc(OC)c(OC)c(OC)c2)ccc1OCC(F)(F)F` [Hydrochloride of Example 9], 1000 mg/kg.

Source of the values: patent publication US20250074869A1, “AMINO-COMBRETASTATIN DERIVATIVE AND USE THEREOF” (priority 2020, published 2025).
